PubChem BioAssay (NCI)
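Dose response: 5 concentrations. Exposure: 48 h. Format: 96-well plates. Endpoint: linear interpolation; highest concentration if not reached. TGI marks complete inhibition of growth.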

What was measured:
Test in all cases: NCI tumour cell line growth inhibition, 48 h
UO-31 renal = tested on: UO-31 renal
CAKI-1 renal = tested on: CAKI-1 renal
SW-620 colon = tested on: SW-620 colon
K-562 leukemia = tested on: K-562 leukemia
OVCAR-3 ovarian = tested on: OVCAR-3 ovarian
HS 578T breast = tested on: HS 578T breast
T-47D breast = tested on: T-47D breast
SF-268 CNS = tested on: SF-268 CNS
SNB-75 CNS = tested on: SNB-75 CNS
OVCAR-8 ovarian = tested on: OVCAR-8 ovarian

SMILES	TGI (UO-31 renal) [µM]	TGI (CAKI-1 renal) [µM]	TGI (SW-620 colon) [µM]	TGI (K-562 leukemia) [µM]	TGI (OVCAR-3 ovarian) [µM]	TGI (HS 578T breast) [µM]	TGI (T-47D breast) [µM]	TGI (SF-268 CNS) [µM]	TGI (SNB-75 CNS) [µM]	TGI (OVCAR-8 ovarian) [µM]
CC(C)(C)C1=CC(=C(c2ccc(-c3c4nc(c(-c5ccc(C(=C6C=C(C(C)(C)C)C(=O)C(C(C)(C)C)=C6)c6cc(C(C)(C)C)c(O)c(C(C)(C)C)c6)cc5)c5ccc([nH]5)c(-c5ccc(C(=C6C=C(C(C)(C)C)C(=O)C(C(C)(C)C)=C6)c6cc(C(C)(C)C)c(O)c(C(C)(C)C)c6)cc5)c5nc(c(-c6ccc(C(=C7C=C(C(C)(C)C)C(=O)C(C(C)(C)C)=C7)c7cc(C(C)(C)C)c(O)c(C(C)(C)C)c7)cc6)c6ccc3[nH]6)C=C5)C=C4)cc2)c2cc(C(C)(C)C)c(O)c(C(C)(C)C)c2)C=C(C(C)(C)C)C1=O	> 100	> 100	> 100	> 100	> 100	> 100	> 100	> 100	> 100	> 100
CN1C2CCC1CC(CCNC(c1ccccc1)c1ccccc1)C2 (stereo not given)	56.5	> 100	> 100	27.4	> 100	> 100	72.2	> 100	> 100	> 100
COC(=O)CCc1cc(O)c2c(c1)C(C(=O)OC)C(c1ccc(O)c(O)c1)O2 (stereo not given)	> 100	> 100	> 100	10.6	> 67.1	> 95.9	> 72.3	> 100	8.41	65.1
Cc1ccc(/C=C2\CCC/C(=C\c3ccc(O)c(CN4CCCCC4)c3)C2=O)cc1	23.3	33	17.7	> 38.3	36.5	38.5	60.2	13	22.6	8.37
NC(N)=N/N=C/c1c(-c2cccc([N+](=O)[O-])c2)nc2n1CCS2	30.6	68.4	37.7	> 100	63	32.1	26.1	46.6	25.1	39.3
Cc1ccc(C)c(COCCOCn2ccc(N)nc2=O)c1	> 100	> 100	> 100	> 100	> 100	> 100	> 100	> 100	> 100	> 100
O=C1CCCC2(c3ccccc3)Nc3ccccc3N12 (stereo not given)	> 100	> 100	> 100	> 100	> 100	> 100	> 100	> 100	> 100	> 100
